The record followed here is patent publication US9944641B2, “Isoquinolinone derivatives useful in the treatment of cancer” (PIERRE FABRE MEDICAMENT, priority 2014, dated 2018).

Format in all cases: binding
The target in one assay is T1, FLT3-ITD (Homo sapiens, UniProt P36888).
T1 construct: fused on or other part: GST tag (detected with the Europium-tagged anti-GST antibody)
T1 sequence (P36888 1-993): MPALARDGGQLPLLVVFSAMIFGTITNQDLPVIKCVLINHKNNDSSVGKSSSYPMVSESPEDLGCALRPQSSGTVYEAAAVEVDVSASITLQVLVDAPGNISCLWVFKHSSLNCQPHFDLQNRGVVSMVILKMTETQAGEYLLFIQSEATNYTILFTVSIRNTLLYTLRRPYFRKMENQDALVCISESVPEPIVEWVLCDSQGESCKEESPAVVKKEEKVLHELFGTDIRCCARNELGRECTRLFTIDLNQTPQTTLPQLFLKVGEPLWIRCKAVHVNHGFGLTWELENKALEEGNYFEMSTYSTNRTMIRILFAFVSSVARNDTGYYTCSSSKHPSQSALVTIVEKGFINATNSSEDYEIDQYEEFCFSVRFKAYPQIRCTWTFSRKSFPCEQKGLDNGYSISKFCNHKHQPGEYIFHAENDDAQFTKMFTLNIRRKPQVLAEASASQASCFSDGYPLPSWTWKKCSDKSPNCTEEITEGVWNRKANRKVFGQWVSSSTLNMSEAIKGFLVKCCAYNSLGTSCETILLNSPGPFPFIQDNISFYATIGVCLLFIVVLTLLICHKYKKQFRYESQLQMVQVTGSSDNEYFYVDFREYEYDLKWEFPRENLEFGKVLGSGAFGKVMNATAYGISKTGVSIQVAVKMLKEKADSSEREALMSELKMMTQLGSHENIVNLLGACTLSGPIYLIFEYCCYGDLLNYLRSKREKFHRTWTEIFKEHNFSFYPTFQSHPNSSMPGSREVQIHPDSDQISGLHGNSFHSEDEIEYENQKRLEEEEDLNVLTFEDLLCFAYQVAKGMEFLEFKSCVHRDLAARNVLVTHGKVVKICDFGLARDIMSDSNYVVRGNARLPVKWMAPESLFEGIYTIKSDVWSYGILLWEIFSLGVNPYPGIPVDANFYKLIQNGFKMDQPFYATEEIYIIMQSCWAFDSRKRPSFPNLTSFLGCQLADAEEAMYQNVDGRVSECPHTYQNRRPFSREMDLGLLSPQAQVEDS
The assay is described as follows: Lanthascreen TR-FRET enzymatic assay, FLT3-ITD. To be noted: 1 hour at 25° C., 1% DMSO, read-out: Enzymology (IC50) FLT3-ITD. How it is done:
(§1) Recombinant FLT3 (#PV3182), JAK2 (#PV4210) and JAK3 (#PV3855) enzymes were purchased from Life Technologies. FLT3-ITD (#0778-0000-1) and FLT3^D835Y (#14-610) were respectively purchased from Proquinase and Merck Millipore.
(§2) The assays were conducted in 384-well plates based on Life Technologies Lanthascreen® TR-FRET methodologies.
FLT3-ITD or FLT3^D835Y assays: 15 nM of FLT3-ITD or FLT3^D835Y, 3 nM of the 236 kinase tracker (Life Technologies #PV5592) and 6 nM of the Europium-tagged anti-GST Lanthascreen® antibody are mixed into 15 μL total volume reaction mixture.
(§3) IC50s were determined from a 8-point dose-response curve spanning a >1000 fold concentration range using a 10 mM compound solution stock into pure DMSO (Sigma #D8418). The overall DMSO concentrations of tested solutions were 1%.
(§4) IC50s were generated with the software Prism (Graphpad).

The next assay addresses T2, JAK2 (Homo sapiens, UniProt O60674).
T2 construct: purchased Life Technologies PV4210
The assay is described as follows: Lanthascreen TR-FRET enzymatic assay, JAK2. To be noted: recombinant JAK2, 1 hour at 25° C., 1% DMSO; read-out: Enzymology (IC50) JAK2. How it is done:
as §1, §2
JAK2 assays: 15 nM of JAK2, 150 nM of the 236 kinase tracker (Life Technologies #PV5592) and 6 nM of the Europium-tagged anti-GST Lanthascreen® antibody are mixed into 15 μL total volume reaction mixture.
as §3, §4
A general note: In TR-FRET formats the signal depends on donor and acceptor labels being close together.

A further assay addresses T3, JAK3 (Homo sapiens, UniProt P52333).
T3 construct: purchased Life Technologies PV3855
T3 sequence (P52333 1-1124): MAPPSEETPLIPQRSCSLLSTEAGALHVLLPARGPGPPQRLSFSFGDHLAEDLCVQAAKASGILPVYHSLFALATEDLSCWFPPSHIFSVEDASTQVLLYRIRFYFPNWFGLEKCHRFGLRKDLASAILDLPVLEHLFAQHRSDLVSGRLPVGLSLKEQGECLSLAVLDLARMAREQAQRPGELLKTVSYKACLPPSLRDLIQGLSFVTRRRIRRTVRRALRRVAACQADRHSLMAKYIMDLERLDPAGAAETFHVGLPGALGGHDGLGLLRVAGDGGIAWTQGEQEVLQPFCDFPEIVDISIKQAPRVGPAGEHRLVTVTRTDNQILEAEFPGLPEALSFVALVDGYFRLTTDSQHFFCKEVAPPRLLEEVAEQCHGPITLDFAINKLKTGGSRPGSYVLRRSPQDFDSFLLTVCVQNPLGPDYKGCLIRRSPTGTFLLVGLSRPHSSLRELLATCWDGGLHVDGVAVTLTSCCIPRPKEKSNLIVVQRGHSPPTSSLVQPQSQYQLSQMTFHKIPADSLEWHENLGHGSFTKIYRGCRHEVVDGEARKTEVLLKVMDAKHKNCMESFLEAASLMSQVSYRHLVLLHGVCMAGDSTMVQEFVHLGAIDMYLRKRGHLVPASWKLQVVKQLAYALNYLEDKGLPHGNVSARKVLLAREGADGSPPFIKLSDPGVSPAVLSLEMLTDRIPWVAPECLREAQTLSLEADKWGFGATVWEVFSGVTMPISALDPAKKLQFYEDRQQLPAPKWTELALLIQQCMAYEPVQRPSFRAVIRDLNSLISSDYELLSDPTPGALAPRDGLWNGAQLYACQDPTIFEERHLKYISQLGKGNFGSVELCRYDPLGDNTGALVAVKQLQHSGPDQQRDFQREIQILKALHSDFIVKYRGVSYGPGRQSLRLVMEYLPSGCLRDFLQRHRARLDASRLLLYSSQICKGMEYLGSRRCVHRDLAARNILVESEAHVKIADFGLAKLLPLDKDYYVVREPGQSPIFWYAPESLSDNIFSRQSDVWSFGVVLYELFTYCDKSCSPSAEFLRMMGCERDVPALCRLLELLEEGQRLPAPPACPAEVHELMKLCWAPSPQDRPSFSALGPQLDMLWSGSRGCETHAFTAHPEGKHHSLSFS
The assay is described as follows: Lanthascreen TR-FRET enzymatic assay, JAK3. To be noted: recombinant JAK3, 1 hour at 25° C., 1% DMSO; read-out: Enzymology (IC50) JAK3. The procedure:
as §1, §2
JAK3 assays: 15 nM of […], 3 nM of the 236 kinase tracker (Life Technologies #PV5592) and 6 nM of the Europium-tagged anti-GST Lanthascreen® antibody are mixed into 15 μL total volume reaction mixture.
as §3, §4

T2 sequence (O60674 whole entry): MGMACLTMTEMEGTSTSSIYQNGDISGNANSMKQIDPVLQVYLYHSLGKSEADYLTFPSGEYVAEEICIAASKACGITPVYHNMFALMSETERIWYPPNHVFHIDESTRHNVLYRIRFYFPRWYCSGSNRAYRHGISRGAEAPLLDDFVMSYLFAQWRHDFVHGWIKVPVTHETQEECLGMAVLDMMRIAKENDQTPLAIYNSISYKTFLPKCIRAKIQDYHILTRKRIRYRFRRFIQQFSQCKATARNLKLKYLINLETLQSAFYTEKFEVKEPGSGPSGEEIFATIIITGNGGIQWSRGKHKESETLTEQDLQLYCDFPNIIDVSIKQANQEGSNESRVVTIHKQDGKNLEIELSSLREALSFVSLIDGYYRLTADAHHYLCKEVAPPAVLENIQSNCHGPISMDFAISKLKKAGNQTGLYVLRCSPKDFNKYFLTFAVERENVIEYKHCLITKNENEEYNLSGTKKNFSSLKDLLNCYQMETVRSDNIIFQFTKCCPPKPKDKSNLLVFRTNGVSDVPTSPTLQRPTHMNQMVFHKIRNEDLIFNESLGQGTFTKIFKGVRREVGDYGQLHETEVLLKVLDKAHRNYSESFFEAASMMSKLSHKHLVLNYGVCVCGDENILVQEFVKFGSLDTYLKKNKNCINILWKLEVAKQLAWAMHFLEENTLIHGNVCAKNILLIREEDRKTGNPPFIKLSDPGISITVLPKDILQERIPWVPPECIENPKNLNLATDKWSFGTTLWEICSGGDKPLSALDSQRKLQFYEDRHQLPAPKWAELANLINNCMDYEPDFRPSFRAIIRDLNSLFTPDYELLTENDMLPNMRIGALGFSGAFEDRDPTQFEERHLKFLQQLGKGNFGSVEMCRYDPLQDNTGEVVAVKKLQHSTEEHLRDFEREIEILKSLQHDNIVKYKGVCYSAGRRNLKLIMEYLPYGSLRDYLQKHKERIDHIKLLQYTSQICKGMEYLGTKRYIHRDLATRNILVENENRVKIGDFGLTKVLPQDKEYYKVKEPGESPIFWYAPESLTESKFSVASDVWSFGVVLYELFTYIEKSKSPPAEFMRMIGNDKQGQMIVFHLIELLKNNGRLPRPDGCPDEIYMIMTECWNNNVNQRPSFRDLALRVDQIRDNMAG

As to `COc1cc2c(cc1N)c(=O)n(C)c1cnc(Nc3cc(N)cc(F)c3)nc21` [Compound C26, 8-amino-2-((3-amino-5-fluorophenyl)amino)-9-methoxy-5-methylpyrimido [5,4-c]isoquinolin-6(5H)-one], the IC50 (commonly the midpoint of a concentration-inhibition curve) is 25 to 100 nM on FLT3-ITD, 100 to 1000 nM on JAK2 and 100 to 1000 nM on JAK3.

On to `Cn1c(=O)c2cc(N)ccc2c2nc(Nc3cccc(N)c3)ncc21` [Compound C2, 8-amino-2-((3-aminophenyl)amino)-5-methylpyrimido[5,4-c]isoquinolin-6(5H)-one], for which the 50% inhibitory concentration (IC50) on FLT3-ITD is less than 25 nM; on JAK2, 25 to 100 nM; on JAK3, 25 to 100 nM.

As for `COc1cc2c(cc1N)c(=O)n(C)c1cnc(Nc3ccc(OCCN4CCCC4)cc3)nc21` [Compound C42, 8-amino-9-methoxy-5-methyl-2-((4-(2-(pyrrolidin-1-yl)ethoxy)phenyl)amino) pyrimido[5,4-c]isoquinolin-6(5H)-one], the IC50 at FLT3-ITD is less than 25 nM; on JAK2, 100 to 1000 nM; at JAK3 it was 100 to 1000 nM.

`Cn1c(=O)c2cc(N)ccc2c2nc(Nc3ccc(OCCN4CCCC4)cc3)ncc21` [Compound C34, 8-amino-5-methyl-2-((4-(2-(pyrrolidin-1-yl)ethoxy)phenyl)amino)pyrimido[5,4-c]isoquinolin-6(5H)-one]: the IC50 at FLT3-ITD was less than 25 nM; on JAK2, 100 to 1000 nM; at JAK3, 100 to 1000 nM.

Regarding `COc1cc2c(cc1N)c(=O)n(C)c1cnc(Nc3ccc(N4CCN(C)CC4)cc3)nc21` [Compound C10, 8-amino-9-methoxy-5-methyl-2-((4-(4-methylpiperazin-1-yl)phenyl)amino) pyrimido[5,4-c]isoquinolin-6(5H)-one], the values for the IC50 on FLT3-ITD, at JAK2 and at JAK3 were less than 25 nM, 100 to 1000 nM and 25 to 100 nM, respectively.

Regarding `Cn1c(=O)c2cc(N)ccc2c2nc(Nc3ccc(F)c(N)c3)ncc21` [Compound C22, 8-amino-2-((3-amino-4-fluorophenyl)amino)-5-methylpyrimido[5,4-c]isoquinolin-6(5H)-one], the IC50 is less than 25 nM on FLT3-ITD, 100 to 1000 nM on JAK2 and 25 to 100 nM at JAK3.

Take `CN1CCN(c2ccc(Nc3ncc4c(n3)c3ccc(N)cc3c(=O)n4C)cc2)CC1` [Compound C4, 8-amino-5-methyl-2-((4-(4-methylpiperazin-1-yl)phenyl)amino)pyrimido[5,4-c]isoquinolin-6(5H)-one]: the IC50 on FLT3-ITD was less than 25 nM; on JAK2 it was 100 to 1000 nM; on JAK3 it was 25 to 100 nM.

In the case of `CN1CCN(c2cccc(Nc3ncc4c(n3)c3ccc(N)cc3c(=O)n4C)c2)CC1` [Compound C6, 8-amino-5-methyl-2-((3-(4-methylpiperazin-1-yl)phenyl)amino)pyrimido[5,4-c]isoquinolin-6(5H)-one], the IC50 on FLT3-ITD was less than 25 nM; at JAK2, 100 to 1000 nM; at JAK3, 25 to 100 nM.

`COc1cc2c(cc1N)c(=O)n(C)c1cnc(Nc3ccc(F)c(N)c3)nc21` [Compound C28, 8-amino-2-((3-amino-4-fluorophenyl)amino)-9-methoxy-5-methylpyrimido [5,4-c]isoquinolin-6(5H)-one]: the values for the IC50 on FLT3-ITD, on JAK2 and on JAK3 were less than 25 nM, 100 to 1000 nM and 100 to 1000 nM, respectively.
